In patent US12612403B2, “Nitrogen-containing heterocyclic derivative inhibitor, and preparation method therefor and use thereof” (SHANGHAI HANSOH BIOMEDICAL CO., LTD., priority 2024, dated 2026):

Experiments:
[1] = In vitro metabolic stability in human liver microsomes; format: in vitro ADME; settings: pH 7.4
Method: 1. Experimental objective: The purpose of this experiment was to evaluate the metabolic stability of the compounds in phase I and partially phase II in mouse, rat and human liver microsomes, respectively.
2.1 Drug preparation: 10 mM stock solution of the compound of the present disclosure was prepared in DMSO (or other suitable solution) and stored in a −20° C. refrigerator for later use. The compound of the present disclosure was made in house.
2.2 Experimental steps • 1) Preparation of buffer: 4.01 mL of 1 M K2HPO4·3H2O (AR grade) and 0.99 mL of 1 M KH2PO4 (AR grade) were dissolved in ultrapure water and the volume was adjusted to 50 mL to prepare a phosphate buffer with a final concentration of 100 mM. • 2) Preparation of compound working solution: Preparation of compound working solution: 2 μL of the compound stock solution was added to 998 μL of phosphate buffer to a final concentration of 20 μM. According to the properties of the compound, the preparation proportions could be adjusted appropriately to adjust the final concentration. • 3) Preparation of liver microsome working solution: 156.3 μL of 20 mg/mL microsomes were diluted to 5 mL with 100 mM phosphate buffer, and the mixture was mixed well to reach a final concentration of 0.625 mg/mL. • 4) Preparation of NADPH and UDPGA: 33.3 mg of NADPH and 25.8 mg of UDPGA were weighed and added to 2 mL of 100 mM phosphate buffer to reach a final concentration of 20 mM. • 5) Preparation of pore-forming agent (Alamethicin): 1 mg of Alamethicin was weighed and added to 200 μL of methanol to prepare a 5 mg/mL solution. 10 μL of the solution was taken and added to 990 μL phosphate buffer (pH 7.4) to reach a final concentration of 50 μg/mL. • 6) Preparation of reaction stop solution: The internal standard was diluted with acetonitrile (or other suitable solution) to use as a stop solution and stored in a 2° C.-8° C. refrigerator. • 7) Incubation process: 400 μL of the prepared liver microsomes, 25 μL of the compound working solution (20 μM) and 25 μL of Alamethicin (50 μg/mL) were successively added to the 96-well plate, and the mixture was pre-incubated at 37° C. for 10 min. Then, 50 μL of prepared NADPH/UDPGA was added to start the reaction, and the mixture was incubated at 37° C. The total volume of the reaction system was 500 μL. The final contents of each component were as follows:
50 μL of samples were taken at 0, 5, 15, 30, 60 and 120 min, respectively, 200 μL of a cold stop solution containing the internal standard was added to stop the sample reaction, the mixture was centrifuged at 3500 rpm for 10 min, and the supernatant was taken and analyzed by LC-MS/MS.
Instruments: Shimadzu LC-20 AD; Chromatographic column: Phenomenex Gamin® C18 (50*4.6 mm, 5 μm particle size); mobile phase: A: 0.1% aqueous formic acid, B: acetonitrile; Elution gradient: 0.2-1.6 min, […], 3.0-3.1 min, 95% A to 5% A; Flow rate: 1.0 ml/min; Run time: 4.0 min; Injection volume: 5 μL.
Instruments: AP14000 liquid chromatography mass spectrometer, AB Sciex; Ion source: electrospray ionization source (ESI); Drying gas: N2, temperature 500° C.; Electrospray voltage: 5000 V; Detection mode: positive ion detection; Scanning mode: Reaction Monitoring (MRM) mode; Scanning time: 0.8401 s.
3. Data processing: The raw data were calculated according to the following formula: […]
The in vitro liver microsome intrinsic clearance rate (CLint) and liver intrinsic clearance rate (CLint,liver) were calculated by Ke.

[2] = Pharmacokinetic determination in mice (PO 5 mg/kg, IV 1 mg/kg); format: in vivo, C57BL/6J mice; settings: male, C57BL/6J, mouse, plasma, C57 mice, PO administration, 5 mpk; for AUC(0-inf): read-out: Area under the curve AUC0-∞; for half-life: read-out: Half-life t1/2 (converted); for MRT: read-out: Mean residence time MRT; for Cmax: read-out: Plasma concentration Cmax; for Tmax: read-out: Time to peak tmax
Procedure, shortened: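 Fasted male C57BL/6J mice (n=3 per route) dosed PO 5 mg/kg in 10% Solutol HS15 or IV 1 mg/kg in 5% DMSO/10% Solutol HS15/85% PBS. Orbital blood sampled 0.083 (IV) to 24 h; plasma measured by LC-MS/MS, parameters by WinNonlin.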

SMILES | half-life at 1 µM [1] [h] | microsomal CLint at 1 µM [1] [µL/min/mg] | AUC(0-inf) [2] [ng·h/mL] | half-life [2] [h] | MRT [2] [h] | Cmax [2] [ng/mL] | Tmax [2] [h]
O=C1c2ncccc2CN1c1cnc(N[C@H]2CC[C@H](Nc3nc4cc(OC(F)F)ccn4n3)C2)c(F)c1 [Example 151] | 11.8 | 1.9 | 11300 | 1.4 | 2.3 | 3460 | 0.5
O=c1nc(O)ccn1-c1cnc(N[C@H]2CC[C@H](Nc3nc4cc(C(F)(F)F)ccn4n3)C2)c(F)c1 [Example 183] | 23 | 1 | 26700 | 3 | 3.5 | 6130 | 0.7
O=c1nc(O)ccn1-c1ccc(N[C@H]2CC[C@H](Nc3nc4cc(C(F)(F)F)ccn4n3)C2)nc1 [Example 78, 4-hydroxy-1-(6-(((1S,3S)-3-((7-(trifluoromethyl)-[1,2,4]triazolo[1,5-a]pyridin-2-yl)amino)cyclopentyl)amino)pyridin-3-yl)pyrimidin-2(1H)-one] | 13.2 | 1.75 | 14000 | 3.6 | 1.7 | 7860 | 0.25
